Assay results taken from patent US20250326732A1 (Pretzel Therapeutics, Inc., priority 2021, published 2025).

biological target: POLRMT (Homo sapiens (Human), UniProt O00411); test: homogeneous TR-FRET assay of mitochondrial transcription (inhibition of POLRMT); format: biochemical; conditions: 7.5 nM POLRMT, 15 nM TFB2M, 30 nM TFAM, 0.5 nM DNA template, 500 μM NTPs, 37° C. for 60 minutes
Procedure, shortened: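 POLRMT transcription from linearized pUC-LSP DNA template; RNA product detected by hybridization of ATTO647 acceptor (1 nM) and biotinylated donor (3 nM) probes plus Europium-streptavidin. Reaction stopped with EDTA/700 mM NaCl buffer, pH 7.5.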

POLRMT, sequence (O00411 42-1230): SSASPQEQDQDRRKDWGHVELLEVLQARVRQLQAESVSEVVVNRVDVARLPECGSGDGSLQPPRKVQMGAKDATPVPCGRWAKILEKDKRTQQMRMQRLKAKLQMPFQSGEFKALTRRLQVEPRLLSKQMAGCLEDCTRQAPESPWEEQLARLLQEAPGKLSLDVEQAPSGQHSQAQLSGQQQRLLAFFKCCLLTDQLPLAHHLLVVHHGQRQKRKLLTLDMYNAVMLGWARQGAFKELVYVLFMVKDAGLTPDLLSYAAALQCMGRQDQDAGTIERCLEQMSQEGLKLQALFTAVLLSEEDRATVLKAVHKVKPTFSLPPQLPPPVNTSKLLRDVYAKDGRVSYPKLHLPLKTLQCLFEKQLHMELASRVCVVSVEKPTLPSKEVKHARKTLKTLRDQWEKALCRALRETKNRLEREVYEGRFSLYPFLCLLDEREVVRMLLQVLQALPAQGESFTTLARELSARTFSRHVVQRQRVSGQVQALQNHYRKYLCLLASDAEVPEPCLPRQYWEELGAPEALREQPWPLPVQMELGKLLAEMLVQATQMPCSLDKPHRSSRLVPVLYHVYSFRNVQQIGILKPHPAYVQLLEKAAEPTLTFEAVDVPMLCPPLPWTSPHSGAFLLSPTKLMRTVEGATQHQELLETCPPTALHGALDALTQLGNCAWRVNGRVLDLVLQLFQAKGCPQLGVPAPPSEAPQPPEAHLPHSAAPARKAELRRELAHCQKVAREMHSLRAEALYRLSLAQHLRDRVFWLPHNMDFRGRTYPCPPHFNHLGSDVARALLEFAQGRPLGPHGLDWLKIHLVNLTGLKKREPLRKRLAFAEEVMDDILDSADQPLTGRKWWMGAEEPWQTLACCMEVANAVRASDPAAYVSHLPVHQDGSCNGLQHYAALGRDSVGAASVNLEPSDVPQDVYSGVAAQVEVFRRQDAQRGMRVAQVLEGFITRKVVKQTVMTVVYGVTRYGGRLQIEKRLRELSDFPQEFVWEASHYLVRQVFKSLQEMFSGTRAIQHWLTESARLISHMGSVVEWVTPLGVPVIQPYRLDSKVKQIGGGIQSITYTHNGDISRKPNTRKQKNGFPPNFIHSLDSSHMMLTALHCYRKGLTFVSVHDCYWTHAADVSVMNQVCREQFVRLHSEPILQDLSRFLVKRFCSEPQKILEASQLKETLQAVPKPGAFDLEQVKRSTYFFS

For COC(C)c1ccc2c(-c3ccccc3C)cc(=O)oc2c1 (stereo not drawn) [Example 74, 7-(1-methoxyethyl)-4-(o-tolyl)-2H-chromen-2-one], which IC50 is on record?
The IC50 was 0.7 µM.

For Cc1ccccc1-c1cc(=O)oc2cc(N(C)[C@H](C)C(=O)N3CCC[C@H](C(=O)O)C3)ccc12 [Example 75, (S)-1-(N-methyl-N-(2-oxo-4-(o-tolyl)-2H-chromen-7-yl)-D-alanyl)piperidine-3-carboxylic acid], which IC50 is on record?
The IC50 was 0.03 µM.

For Cc1ccccc1-c1cc(=O)oc2cc(N(C)CC(=O)O)ccc12 [Example 76, N-methyl-N-(2-oxo-4-(o-tolyl)-2H-chromen-7-yl)glycine], which IC50 is on record?
Its IC50 is 0.2 µM.

For CC(=O)N(C)C(C)c1ccc2c(-c3ccccc3C)cc(=O)oc2c1 (stereo not drawn) [Example 77, N-methyl-N-(1-(2-oxo-4-(o-tolyl)-2H-chromen-7-yl)ethyl)acetamide], which IC50 is on record?
The IC50 was 2 µM.

Which IC50 does the source give for Cc1ccccc1-c1cc(=O)oc2cc(C(C)N(C)C)ccc12 (stereo not drawn) [Example 78, 7-(1-(dimethylamino)ethyl)-4-(o-tolyl)-2H-chromen-2-one] here?
The IC50 was 44 µM.

Cc1ccccc1-c1cc(=O)oc2cc(NCC(=O)N3CCC[C@H](C(=O)O)C3)ccc12 [Example 79, (S)-1-((2-oxo-4-(o-tolyl)-2H-chromen-7-yl)glycyl)piperidine-3-carboxylic acid] was tested. Which IC50 did it give?
Its IC50 is 2 µM.

With Cc1ccccc1-c1cc(=O)oc2cc(N[C@H](C)C(=O)N3CCC[C@H](C(=O)O)C3)ccc12 [Example 80, (S)-1-((2-oxo-4-(o-tolyl)-2H-chromen-7-yl)-D-alanyl)piperidine-3-carboxylic acid] as the molecule, how does the IC50 read?
Its IC50 is 0.1 µM.

Which IC50 does the source give for Cc1ccccc1-c1cc(=O)oc2cc(C(C)N)ccc12 (stereo not drawn) [Example 91, 7-(1-aminoethyl)-4-(o-tolyl)-2H-chromen-2-one] here?
The IC50 was 20 µM.

CC(=O)NC(C)c1ccc2c(-c3ccccc3C)cc(=O)oc2c1 (stereo not drawn) [Example 96, N-(1-(2-oxo-4-(o-tolyl)-2H-chromen-7-yl)ethyl)acetamide] was tested. Which IC50 did it give?
The IC50 was 2 µM.

How did the IC50 turn out when CN(CC(=O)O)c1ccc2c(-c3ccccc3)cc(=O)oc2c1 [Example 101, N-methyl-N-(2-oxo-4-phenyl-2H-chromen-7-yl)glycine] was run?
Its IC50 is 10 µM.

How did the IC50 turn out when COC[C@H](Nc1ccc2c(-c3ccccc3C)cc(=O)oc2c1)C(=O)O [Example 102, O-methyl-N-(2-oxo-4-(o-tolyl)-2H-chromen-7-yl) serine] was run?
Its IC50 is 3 µM.

For COC[C@H](Nc1ccc2c(-c3ccccc3C)cc(=O)oc2c1)C(=O)N1CCC[C@H](C(=O)O)C1 [Example 103, (S)-1-(O-methyl-N-(2-oxo-4-(o-tolyl)-2H-chromen-7-yl)-seryl)piperidine-3-carboxylic acid], which IC50 is on record?
The IC50 was 5 µM.

COC[C@@H](Nc1ccc2c(-c3ccccc3C)cc(=O)oc2c1)C(=O)N1CCC[C@H](C(=O)O)C1 [Example 104, (S)-1-(O-methyl-N-(2-oxo-4-(o-tolyl)-2H-chromen-7-yl)-D-seryl)piperidine-3-carboxylic acid] was tested. Which IC50 did it give?
The IC50 was 0.3 µM.

For CN(CC(=O)O)c1ccc2c(-c3ccc(F)cc3Cl)cc(=O)oc2c1 [Example 105, N-(4-(2-chloro-4-fluorophenyl)-2-oxo-2H-chromen-7-yl)-N-methylglycine], which IC50 is on record?
Its IC50 is 0.5 µM.

For Cc1ccccc1-c1cc(=O)oc2cc(N(C)CC(N)=O)ccc12 [Example 106, 2-(methyl(2-oxo-4-(o-tolyl)-2H-chromen-7-yl)amino)acetamide], which IC50 is on record?
Its IC50 is 0.2 µM.

How did the IC50 turn out when Cc1ccccc1-c1cc(=O)oc2cc(NCc3ccccc3)ccc12 [Example 107, 7-(benzylamino)-4-(o-tolyl)-2H-chromen-2-one] was run?
The IC50 was 3 µM.

Which IC50 does the source give for Cc1ccccc1-c1cc(=O)oc2cc(N(C)[C@H](C)C(=O)O)ccc12 [Example 108, N-methyl-N-(2-oxo-4-(o-tolyl)-2H-chromen-7-yl)-D-alanine] here?
Its IC50 is 0.04 µM.

How did the IC50 turn out when CC(=O)NC1CCN(C(=O)c2ccc3c(-c4ccccc4C)cc(=O)oc3c2)CC1 [Example 109, N-(1-(2-oxo-4-(o-tolyl)-2H-chromene-7-carbonyl)piperidin-4-yl)acetamide] was run?
The IC50 was 5 µM.

For CC(=O)N(C)C1CCN(C(=O)c2ccc3c(-c4ccccc4C)cc(=O)oc3c2)CC1 [Example 110, N-methyl-N-(1-(2-oxo-4-(o-tolyl)-2H-chromene-7-carbonyl)piperidin-4-yl)acetamide], which IC50 is on record?
The IC50 was 8 µM.

With Cc1ccccc1-c1cc(=O)oc2cc(C(=O)N(C)C3CCOCC3)ccc12 [Example 111, N-methyl-2-oxo-N-(tetrahydro-2H-pyran-4-yl)-4-(o-tolyl)-2H-chromene-7-carboxamide] as the molecule, how does the IC50 read?
The IC50 was 64 µM.

Which IC50 does the source give for Cc1ccccc1-c1cc(=O)oc2cc(C(=O)N(C)CC(N)=O)ccc12 [Example 112, N-(2-amino-2-oxoethyl)-N-methyl-2-oxo-4-(o-tolyl)-2H-chromene-7-carboxamide] here?
Its IC50 is 27 µM.

Cc1ccccc1-c1cc(=O)oc2cc(C(=O)NCC(N)=O)ccc12 [Example 113, N-(2-amino-2-oxoethyl)-2-oxo-4-(o-tolyl)-2H-chromene-7-carboxamide] was tested. Which IC50 did it give?
The IC50 was 12 µM.

Which IC50 does the source give for Cc1ccccc1-c1cc(=O)oc2cc(C(=O)N(C)Cc3nccn3C)ccc12 [Example 114, N-methyl-N-((1-methyl-1H-imidazol-2-yl)methyl)-2-oxo-4-(o-tolyl)-2H-chromene-7-carboxamide] here?
Its IC50 is 36 µM.

COCC1CN(C(=O)c2ccc3c(-c4ccccc4C)cc(=O)oc3c2)C1 [Example 115, 7-(3-(methoxymethyl)azetidine-1-carbonyl)-4-(o-tolyl)-2H-chromen-2-one] was tested. Which IC50 did it give?
Its IC50 is 18 µM.

For COC[C@@H]1CCN(C(=O)c2ccc3c(-c4ccccc4C)cc(=O)oc3c2)C1 [Example 116, (R)-7-(3-(methoxymethyl)pyrrolidine-1-carbonyl)-4-(o-tolyl)-2H-chromen-2-one], which IC50 is on record?
Its IC50 is 45 µM.

With Cc1ccccc1-c1cc(=O)oc2cc(C(=O)N(C)C3CCCOC3)ccc12 (stereo not drawn) [Example 117, N-methyl-2-oxo-N-(tetrahydro-2H-pyran-3-yl)-4-(o-tolyl)-2H-chromene-7-carboxamide] as the molecule, how does the IC50 read?
The IC50 was 65 µM.

With Cc1ccccc1-c1cc(=O)oc2cc(C(=O)N3CC(CO)C3)ccc12 [Example 118, 7-(3-(hydroxymethyl)azetidine-1-carbonyl)-4-(o-tolyl)-2H-chromen-2-one] as the molecule, how does the IC50 read?
Its IC50 is 15 µM.

Which IC50 does the source give for Cc1ccccc1-c1cc(=O)oc2cc(NCc3ccn(C)n3)ccc12 [Example 119, 7-(((1-methyl-1H-pyrazol-3-yl)methyl)amino)-4-(o-tolyl)-2H-chromen-2-one] here?
Its IC50 is 2 µM.

Which IC50 does the source give for Cc1ccccc1-c1cc(=O)oc2cc(C(=O)NCc3nccn3C)ccc12 [Example 122, N-((1-methyl-1H-imidazol-2-yl)methyl)-2-oxo-4-(o-tolyl)-2H-chromene-7-carboxamide] here?
The IC50 was 5 µM.

For COC[C@H]1CCN(C(=O)c2ccc3c(-c4ccccc4C)cc(=O)oc3c2)C1 [Example 123, (S)-7-(3-(methoxymethyl)pyrrolidine-1-carbonyl)-4-(o-tolyl)-2H-chromen-2-one], which IC50 is on record?
The IC50 was 16 µM.

How did the IC50 turn out when Cc1ccccc1-c1cc(=O)oc2cc(C(=O)N3CC(C)(CO)C3)ccc12 [Example 124, 7-(3-(hydroxymethyl)-3-methylazetidine-1-carbonyl)-4-(o-tolyl)-2H-chromen-2-one] was run?
The IC50 was 3 µM.

For Cc1ccccc1-c1cc(=O)oc2cc(N(C)Cc3ccn(C)n3)ccc12 [Example 125, 7-(methyl((1-methyl-1H-pyrazol-3-yl)methyl)amino)-4-(o-tolyl)-2H-chromen-2-one], which IC50 is on record?
Its IC50 is 0.1 µM.

How did the IC50 turn out when Cc1ccccc1-c1cc(=O)oc2cc(N(C)Cc3ccccc3)ccc12 [Example 126, 7-[benzyl(methyl)amino]-4-(o-tolyl) chromen-2-one] was run?
The IC50 was 0.05 µM.
